The target of one data set is T1, human IL-23R (Homo sapiens, UniProt Q5VWK5).
T1 sequence (Q5VWK5 22-629): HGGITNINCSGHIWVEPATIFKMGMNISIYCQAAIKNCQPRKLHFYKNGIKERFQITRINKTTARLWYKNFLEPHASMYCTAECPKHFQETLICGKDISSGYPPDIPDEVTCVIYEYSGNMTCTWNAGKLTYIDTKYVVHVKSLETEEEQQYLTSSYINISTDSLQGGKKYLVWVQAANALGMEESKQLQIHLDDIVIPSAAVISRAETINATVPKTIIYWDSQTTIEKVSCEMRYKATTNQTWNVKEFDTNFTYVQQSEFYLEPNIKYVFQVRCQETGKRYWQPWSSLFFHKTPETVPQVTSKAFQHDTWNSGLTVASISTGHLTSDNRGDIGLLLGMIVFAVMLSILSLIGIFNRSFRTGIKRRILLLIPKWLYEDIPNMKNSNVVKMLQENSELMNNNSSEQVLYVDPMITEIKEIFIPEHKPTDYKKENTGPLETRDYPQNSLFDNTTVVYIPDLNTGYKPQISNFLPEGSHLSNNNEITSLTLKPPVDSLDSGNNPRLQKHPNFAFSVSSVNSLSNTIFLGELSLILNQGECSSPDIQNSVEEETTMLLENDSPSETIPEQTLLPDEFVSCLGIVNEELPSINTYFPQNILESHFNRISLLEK
The data set is described as follows: biochemical. The procedure, abridged: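 Membranes from HEK293 cells stably expressing Nluc-tagged human IL-23R were incubated 2 h at room temperature with test compound and a fluorophore-labelled tracer. After substrate addition, loss of BRET (TAMRA over luciferase emission) reported tracer displacement. A 4PL fit gave IC50 values.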

Data set [1] is described as follows: Peptide stability in simulated intestinal fluid (SIF). The format is in vitro ADME. The settings on record: 37 °C, porcine pancreatin; for SIF (% remaining 1 h) / SIF (% remaining 4 h): 10 µM; for SIF (% remaining 1 h) / remaining at 1 h, 10 µM: pH 6.8, 1 h; for SIF (% remaining 4 h) / remaining at 4 h, 10 µM: pH 6.8, 4 h; for remaining at 1 h, 10 µM / remaining at 4 h, 10 µM: pig; for remaining at 4 h, 10 µM: read-out: SIF (% remaining 4 h). The procedure, abridged:
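Peptides were incubated at 37 °C with gentle shaking in pH 6.8 potassium phosphate SIF containing porcine pancreatin (10 g/L). Supernatants were analysed by LC-HRMS. Percent remaining at each timepoint, including 4 h, was calculated relative to time zero from absolute peak areas.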

Data set [2] in a line: Peptide stability in simulated gastric fluid (SGF). It is filed as in vitro ADME. The settings on record: 37 °C, porcine pepsin; for SGF (% remaining 1 h) / SGF (% remaining 4 h): 10 µM; for SGF (% remaining 1 h) / remaining at 1 h, 10 µM: pH 1.2, 1 h; for SGF (% remaining 4 h) / remaining at 4 h, 10 µM: pH 1.2, 4 h; for remaining at 1 h, 10 µM / remaining at 4 h, 10 µM: pig, simulated gastric fluid (SGF) with porcine pepsin (3.2 g/L), pH 1.2, 10 µM; for remaining at 1 h, 10 µM: read-out: SGF (% remaining 1 h); for remaining at 4 h, 10 µM: read-out: SGF (% remaining 4 h). The procedure, abridged: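 Peptide incubated at 37 °C with gentle shaking in SGF (NaCl, pH 1.2). Samples centrifuged, diluted and analysed by LC-HRMS; percent remaining at each timepoint from absolute peak areas relative to time zero, with 4 h as the reference point.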

The target of data set [3] is IL-23 mediated signalling (Homo sapiens, UniProt Q5VWK5). The data set is described as follows: Functional inhibition of IL-23 mediated STAT3 signalling (phospho-STAT3 MSD) in DB cells. It is filed as cell-based. The settings on record: for Emax: read-out: hIL-23 (pSTAT3) antagonist % inhibition. The method, boiled down:
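DB cells preincubated with inhibitor 15 min at 37 °C, then stimulated 90 min with EC80 human IL-23; lysate phospho-STAT3 measured by MSD electrochemiluminescence. Signal normalized to IL-23-alone and buffer controls; IC50 and maximal % inhibition from 4-parameter logistic fit.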

The mark [4] stands for this setting: Table 3-2, DB cells, hIL-23 at EC80, read-out: hIL-23 (pSTAT3) antagonist IC50.
Where [5] appears, read: Table 3-2, maximal inhibitory response, DB cells, hIL-23 at EC80.

Structures are written as SMILES. Where two headings read alike, the source gives them in different places. *1 amine or outer side, *2 acyl side, *3 side chain or, on linkers, in order; H or OH if unused. Where a SMILES comes first, the peptide text is derived from it. Bridges are numbered along the chain shown (N, C = ends). [ ]: non-standard residue; d: D form. 2Nal = N[C@@H](Cc1ccc2ccccc2c1)C(=O)O; AEF = NCCOc1ccc(C[C@H](N)C(=O)O)cc1; αMeL = CC(C)C[C@](C)(N)C(=O)O; CH2COCH2 = O=C(C[*:1])C[*:2]; 3Amb = NCc1cccc(C(=O)O)c1 A value given as a limit tells only on which side of the number the result lay.

In general, IC50 refers to the point on the concentration scale where inhibition reaches its midpoint. In general, Ki refers to the dissociation constant of the complex between target and ligand, obtained from inhibition or displacement. Read a low Ki as tighter binding. For `CSCC[C@H](NC(=O)[C@@H]1CSCC(=O)CSC[C@H](NC(=O)[C@@H](N)CCC(=O)O)C(=O)N[C@@H](Cc2c[nH]c3ccccc23)C(=O)N[C@@H](CC(C)C)C(=O)N[C@H]2CSCC(=O)CSC[C@H](NC(=O)[C@H](CC(N)=O)NC(=O)[C@H](CCCNC(=N)N)NC(=O)[C@H](Cc3ccc(O)cc3)NC(=O)[C@H](Cc3ccc(O)cc3)NC2=O)C(=O)N[C@@H](CC(N)=O)C(=O)N1)C(N)=O` (single isomer, unassigned) [I4 (isomer 3), H-EC(4a)WLC(5a)YYRNC(5a)NC(4a)M-[NH2], reference compound], on human IL-23R, the concentration for half-maximal inhibition (IC50) is > 1000 nM and the Ki is > 1000 nM. For the same molecule, in data set [1], the “SIF (% remaining 1 h)” value was 0% and the “SIF (% remaining 4 h)” value is on record as 0%. In data set [2], the “SGF (% remaining 1 h)” value is reported as 99% and the “SGF (% remaining 4 h)” value is on record as 99%. Moreover, the 50% inhibitory concentration (IC50) in data set [3] (setting [4]) was > 1000 nM. Also, the Emax in data set [3] (setting [5]) was 23%.

As usually defined, the fraction remaining is what is left of the initial amount, in per cent. For `CC(C)C[C@]1(C)NC(=O)[C@H](Cc2ccc3ccccc3c2)NC(=O)[C@H](Cc2ccc(OCCN)cc2)NC(=O)[C@@H]2CCNC(=O)CC[C@H](NC(=O)[C@H](CO)NC(=O)Cc3ccc(cc3)CNC(=O)CC[C@@H](C(=O)N[C@@H](CCN)C(=O)N[C@@H](Cc3cccnc3)C(N)=O)NC1=O)C(=O)N[C@@H](Cc1c[nH]c3ccccc13)C(=O)N[C@@H](CCC(N)=O)C(=O)N2` [Ref 122, [4-Aminomethyl-phenylacetyl](1c)*SE(2c)WQ[Dab](2c)[Y(2-aminoethoxy)][2-Nal][2-Me-Leu]E(1 c)[Dab][3-(3-Pyridyl)-Ala]-[NH2], reference compound], on human IL-23R, the “% displacement (hIL-23R NIuc)” value is given as 97%; the half-inhibitory concentration (IC50) was found to be 0.0066 nM; the affinity, expressed as Ki, was 0.00541 nM. Moreover, in data set [1], the share remaining at 1 h, 10 µM was 73% and the amount remaining at 4 h, 10 µM was 25%. For the same molecule, in data set [2], the fraction remaining at 1 h, 10 µM was 92% and the share remaining at 4 h, 10 µM was 90%. For the same molecule, in data set [3], the 50% inhibitory concentration (IC50) turned out to be 0.028 nM. Further, the Emax in data set [3] (setting [5]) came to 99%.

On to `CC(C)C[C@]1(C)NC(=O)[C@H](Cc2ccc3ccccc3c2)NC(=O)[C@H](Cc2ccc(OCCN)cc2)NC(=O)[C@@H]2CSCC(=O)CSC[C@H](NC(=O)[C@H](CO)NC(=O)c3cccc(c3)CNC(=O)CC[C@@H](C(=O)N[C@H](CCCNC(=N)N)C(N)=O)NC1=O)C(=O)N[C@@H](Cc1c[nH]c3ccccc13)C(=O)N[C@@H](CCC(N)=O)C(=O)N2` [Ref 41, [(3-Aminomethyl)benzoyl](1c)*SC(2a)WQC(2a)[Y(2-aminoethoxy)][2-Nal][2-Me-Leu]E(1c)[{d}R]-[NH2], reference compound] ([3Amb]SCWQC[AEF][2Nal][αMeL]E[dR]-NH2; linker 3-6 via CH2COCH2; lactam N-10), for which, at human IL-23R, the “% displacement (hIL-23R NIuc)” value is recorded as 110%, the IC50 turned out to be 2.8 nM and the Ki was found to be 2.31 nM. Further, in data set [1], the amount remaining at 1 h, 10 µM was 83% and the share remaining at 4 h, 10 µM was 79%. For the same molecule, in data set [2], the amount remaining at 1 h, 10 µM is 93% and the fraction remaining at 4 h, 10 µM is 87%. For the same molecule, the IC50 in data set [3] (setting [4]) amounted to 29 nM. Besides, the Emax in data set [3] (setting [5]) stood at 99%.

Take `CC(C)C[C@@H]1NC(=O)[C@H](Cc2c[nH]c3ccccc23)NC(=O)[C@H](Cc2c[nH]c3ccccc23)NC(=O)[C@@H]2CSCC(=O)CSC[C@H](NC(=O)[C@H]([C@@H](C)O)NC(=O)[C@@H](NC(=O)CN)CSCC(=O)CSC[C@@H](C(=O)N[C@@H](CO)C(N)=O)NC1=O)C(=O)N[C@@H](Cc1c[nH]c3ccccc13)C(=O)N[C@@H](CCC(=O)O)C(=O)N2` (single isomer, unassigned) [I1 (isomer 3), H-GC(1a)TC(2a)WEC(2a)WWLC(1a)S-[NH2], reference compound]: on human IL-23R, the IC50 is 130 nM and the Ki stood at 104 nM. In data set [1], the “SIF (% remaining 1 h)” value is on record as 0% and the “SIF (% remaining 4 h)” value is reported as 0%. Also, in data set [2], the “SGF (% remaining 1 h)” value is 92% and the “SGF (% remaining 4 h)” value is 94%. Further, the IC50 in data set [3] was > 1000 nM. The Emax in data set [3] (DB) was 83%.

Source of the values: patent EP4471048A1, “PEPTIDE INHIBITORS OF INTERLEUKIN-23 RECEPTOR” (Zealand Pharma A/S, priority 2023, dated 2024).
